Source: ChEMBL document CHEMBL3751846, “Active site-directed plasmin inhibitors: Extension on the P2 residue” (Bioorg Med Chem, 2016)
pIC50, pKi: −log10 of the molar value. Square brackets hold non-standard residues; d marks the D form. Peptide text beside a SMILES is read from it. * marks the point of attachment. pNA = O=[N+]([O-])c1ccc(N*)cc1

What was measured:
Plasminogen [1] = target: T1, Plasminogen (Homo sapiens, UniProt P00747); assay: Inhibition of plasmin (unknown origin) using H-D-Val-Leu-Lys-pNA as substrate
T1 sequence (P00747 97-580 limits assumed): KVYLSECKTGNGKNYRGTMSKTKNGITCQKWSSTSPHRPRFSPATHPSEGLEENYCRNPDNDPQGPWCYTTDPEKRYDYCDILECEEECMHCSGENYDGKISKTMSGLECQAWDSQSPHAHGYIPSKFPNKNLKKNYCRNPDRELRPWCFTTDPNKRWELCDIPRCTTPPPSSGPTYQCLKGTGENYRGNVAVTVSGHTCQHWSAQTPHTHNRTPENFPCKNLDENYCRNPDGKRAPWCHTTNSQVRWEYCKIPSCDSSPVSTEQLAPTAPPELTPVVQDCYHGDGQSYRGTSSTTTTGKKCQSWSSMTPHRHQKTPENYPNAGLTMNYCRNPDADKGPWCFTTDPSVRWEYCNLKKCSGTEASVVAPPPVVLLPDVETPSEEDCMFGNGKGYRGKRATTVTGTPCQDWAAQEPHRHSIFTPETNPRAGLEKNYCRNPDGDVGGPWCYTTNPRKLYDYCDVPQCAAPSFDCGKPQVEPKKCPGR
T1 sequence (P00747 581-810 limits assumed): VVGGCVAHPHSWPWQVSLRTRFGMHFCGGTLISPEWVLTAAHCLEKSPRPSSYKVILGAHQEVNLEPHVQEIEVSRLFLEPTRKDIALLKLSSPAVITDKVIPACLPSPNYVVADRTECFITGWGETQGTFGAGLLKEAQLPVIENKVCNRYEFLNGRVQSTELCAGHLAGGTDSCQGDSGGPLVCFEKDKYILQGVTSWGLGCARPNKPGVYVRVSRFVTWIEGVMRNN

[2] = target: Urokinase-type plasminogen activator (Homo sapiens, UniProt P00749); assay: Inhibition of urokinase (unknown origin) using Pyr-Glu-Gly-Arg-pNA as substrate; conditions: for inhibition: concentration not given here
Trypsin = Trypsin (Homo sapiens, UniProt P07477+P07478+P35030); assay: Inhibition of trypsin (unknown origin) using H-D-Phe-Pip-Arg-pNA as substrate; assay type: protein assay
Plasminogen [3] = target: T1, Plasminogen; assay: Inhibition of human plasmin
Plasminogen [4] = target: T1, Plasminogen; assay: Inhibition of human plasmin assessed as inhibition of fibrinolysis in presence of fibrinogen
Plasminogen [5] = target: T1, Plasminogen; assay: Inhibition of human plasmin assessed as inhibition of fibrinogenolysis in presence of fibrinogen
Plasminogen [6] = target: T1, Plasminogen; assay: Inhibition of human plasmin assessed as inhibition of amidolysis in presence of fibrinogen
Plasminogen [7] = target: T1, Plasminogen; assay: Inhibition of plasmin (unknown origin)

| SMILES | pIC50 (Plasminogen [1]) | pIC50 [2] | IC50 (Trypsin) [µM] | pIC50 (Plasminogen [3]) | inhibition [2] [%] | pIC50 (Plasminogen [4]) | pIC50 (Plasminogen [5]) | pKi (Plasminogen [6]) | pIC50 (Plasminogen [7]) |
| --- | --- | --- | --- | --- | --- | --- | --- | --- | --- |
| CCCCCCCCNC(=O)[C@H](Cc1ccc(OCc2ccc3ccccc3n2)cc1)NC(=O)[C@H]1CC[C@H](CN)CC1 | 6.66 | 4.11 | 1.4 | – | – | – | – | – | – |
| CC(C)C[C@H](NC(=O)[C@H](N)C(C)C)C(=O)N[C@@H](CCCCN)C(=O)Nc1ccc([N+](=O)[O-])cc1 (H-[dV]-Leu-Lys-pNA) | – | – | – | 6.28 | – | – | – | – | – |
| CCCCCCCCNC(=O)[C@H](Cc1ccc(OCc2cccc(C(F)(F)F)c2)cc1)NC(=O)[C@H]1CC[C@H](CN)CC1 | 6.22 | < 4.00 | 2.5 | – | 12 | – | – | – | – |
| CCCCCCNC(=O)[C@H](Cc1ccc(OCc2cccnc2)cc1)NC(=O)c1ccc(CN)cc1 | – | – | – | – | – | 5.54 | 5.35 | 5.54 | – |
| CCCCCCCCNC(=O)[C@H](Cc1ccc(OCc2cccc3ccccc23)cc1)NC(=O)[C@H]1CC[C@H](CN)CC1 | 5.80 | < 4.00 | 2.7 | – | 10 | – | – | – | – |
| CCCCCCCCNC(=O)[C@H](Cc1ccc(OCc2ccc(C(=O)OCC)cc2)cc1)NC(=O)[C@H]1CC[C@H](CN)CC1 | 6.31 | < 3.70 | 6.1 | – | 40 | – | – | – | – |
| CCCCCCCCNC(=O)[C@H](Cc1ccc(OCc2ccc(C(=O)O)cc2)cc1)NC(=O)[C@H]1CC[C@H](CN)CC1 | 5.57 | < 4.00 | 4.7 | – | 22 | – | – | – | – |
| CCCCCCCCNC(=O)[C@H](Cc1ccc(OCc2ccccc2)cc1)NC(=O)[C@H]1CC[C@H](CN)CC1 | 5.77 | < 4.00 | 2.2 | – | 0 | – | – | – | – |
| CC[C@@H](C)[C@@H](N)C(=O)N[C@@H](Cc1ccc(OCc2ccncc2)cc1)C(=O)N[C@H](C#N)CCCCN | – | – | – | – | – | – | – | – | 4.96 |
| CC[C@@H](C)[C@@H](N)C(=O)N[C@@H](Cc1ccc(OCc2cccc(OCc3ccncc3)c2)cc1)C(=O)N[C@H](C#N)CCCCN | – | – | – | – | – | – | – | – | 5.11 |
| CCCCCCCCNC(=O)[C@H](Cc1ccc(OCc2cccc(OCc3ccncc3)c2)cc1)NC(=O)[C@H]1CC[C@H](CN)CC1 | 6.01 | < 4.30 | 1.3 | – | 36 | – | – | – | – |
| CCCCCCCCNC(=O)[C@H](Cc1ccc(OCc2cccc(C(=O)O)c2)cc1)NC(=O)[C@H]1CC[C@H](CN)CC1 | 6.28 | < 4.30 | 2 | – | 13 | – | – | – | – |
| CCCCCCCCNC(=O)[C@H](Cc1ccc(OCc2ccccc2C(=O)OC)cc1)NC(=O)[C@H]1CC[C@H](CN)CC1 | 5.82 | < 3.70 | 4.8 | – | 23 | – | – | – | – |
| CCCCCCCCNC(=O)[C@H](Cc1ccc(OCc2cccc([N+](=O)[O-])c2)cc1)NC(=O)[C@H]1CC[C@H](CN)CC1 | 6.17 | < 4.00 | 2.1 | – | 13 | – | – | – | – |
| CCCCCCCCNC(=O)[C@H](Cc1ccc(OCc2ccc3ccccc3c2)cc1)NC(=O)[C@H]1CC[C@H](CN)CC1 | 6.15 | < 4.00 | 4.4 | – | 23 | – | – | – | – |
| CCCCCCCCNC(=O)[C@H](Cc1ccc(OCc2ccc(C(F)(F)F)cc2)cc1)NC(=O)[C@H]1CC[C@H](CN)CC1 | 6.02 | < 4.00 | 6.9 | – | 6 | – | – | – | – |
| CCCCCCCCNC(=O)[C@H](Cc1ccc(OCc2cccc(-c3ccccc3)c2)cc1)NC(=O)[C@H]1CC[C@H](CN)CC1 | 6.12 | < 4.00 | 6.7 | – | 41 | – | – | – | – |
| CCCCCCCCNC(=O)[C@H](Cc1ccc(OCc2cccc(N)c2)cc1)NC(=O)[C@H]1CC[C@H](CN)CC1 | 6.07 | < 4.00 | 0.86 | – | 31 | – | – | – | – |
| CCCCCCCCNC(=O)[C@H](Cc1ccc(OCc2cccc3cccnc23)cc1)NC(=O)[C@H]1CC[C@H](CN)CC1 | 6.47 | < 4.00 | 0.93 | – | 24 | – | – | – | – |
| CCCCCCCCNC(=O)[C@H](Cc1ccc(OCc2ccncc2)cc1)NC(=O)[C@H]1CC[C@H](CN)CC1 | 6.28 | 5.28 | 1.1 | – | – | – | – | – | – |
| CCCCCCCCNC(=O)[C@H](Cc1ccc(OC(C)(C)C)cc1)NC(=O)[C@H]1CC[C@H](CN)CC1 | 4.77 | < 4.00 | 0.38 | – | 17 | – | – | – | – |
| CCCCCCCCNC(=O)[C@H](Cc1ccc(OCc2ccccc2C(F)(F)F)cc1)NC(=O)[C@H]1CC[C@H](CN)CC1 | 5.52 | < 4.00 | 4.6 | – | 5 | – | – | – | – |
| CCCCCCCCNC(=O)[C@H](Cc1ccc(O)cc1)NC(=O)[C@H]1CC[C@H](CN)CC1 | 4.17 | 4.21 | 1 | – | – | – | – | – | – |
| CCCCCCCCNC(=O)[C@H](Cc1ccc(OCc2cccc(C(=O)OCC)c2)cc1)NC(=O)[C@H]1CC[C@H](CN)CC1 | 6.29 | < 4.30 | 2.7 | – | 7 | – | – | – | – |
